# Reference: US5952335A, “Fused polycyclic heterocycle derivatives” (Eisai Co., Ltd., priority 1995, dated 1999)
# Structures can show the parent of a compound that is named as a salt. Where two headings read alike, the source gives them in different places.
# How the values were obtained:
# P388 cells = test: in vitro Antitumor Test on P388 Cells (Mouse Leukemic Cells), MTT, 3 days; assay type: cell-based; conditions: 72 h, 3 days incubation
# Protocol: P388 cells suspended in RPMI1640 medium (manufactured by Sanko Junyaku) containing 10% of fetal calf serum, (100 U/ml) of penicillin, 100 μg/ml of streptomycin, 5×10^-5 M of mercaptoethanol and 1 mM of sodium pyruvate were pipetted into a 96-well U-bottomed microplate at a ratio of 1.25×10^3 cells (0.1 ml) per well and incubated in a incubator containing 5% of carbon dioxide at 37° C. for a day. A compound of the present invention was dissolved in dimethyl sulfoxide to give a concentration of 10^-2 M and then diluted with the 10% fetal calf serum-containing RPMI1640 culture medium to give a concentration of 10^-4 or 10^-5 M. By taking this concentration as the maximal level, threefold serial dilution was effected with the use of the 10% fetal calf serum-containing RPMI1640 culture medium. Then these dilutions were added to the P388 incubation plate as described above at a ratio of 0.1 ml per well followed by incubation in an incubator containing 5% of carbon dioxide at 37° C. for 3 days. After the completion of the incubation, 0.05 ml/well of a 3.3 mg/ml solution of MTT [3-(4,5-dimethylthiazol-2-yl)-2,5-diphenyltetrazolium bromide] was added thereto and the incubation was continued for additional 2 hours. The microplate was centrifuged and the supernatant was aspirated off from each well. Then the formazan thus formed was dissolved in 0.1 ml of dimethyl sulfoxide and the absorbance thereof at 540 nm measured with a microplate reader was taken as an indication of the viable cell count. In accordance with the following formula, the inhibitory ratio was calculated and the 50% inhibitory concentration (IC50) of the test compound was determined: [formula] wherein T means the absorbance of a well containing the test compound; and C means the absorbance of a well containing no test compound.
# [1] = test system: MX-1 (Human Mammary Cancer); test: in vivo Antitumor Test on MX-1 (Human Mammary Cancer) transplanted in nude mice; conditions: Mus musculus, ip, 528 h, i.p., q7d × 3
# Protocol: MX-1 tumor pieces (about 1 mm^3) were subcutaneously transplanted into the side part of each nude mouse (BALB/C.nu/nu, 6 to 7 weeks, female). A compound of the present invention was dissolved in a 5% solution of glucose. When the tumor volume reached 50 mm^3 (on the about 10th day after the transplantation), the solution of the compound was intraperitoneally administered to the animals once a day in accordance with each schedule. On the other hand, a 5% solution of glucose was administered to the control group. The control group had 10 animals, while each test group had 5 animals. On the 22nd day after the transplantation, tumors were taken out and weighed. The tumor multiplication inhibitory ratio of each test group to the control group was determined in accordance with the following formula: [formula] wherein T means the average tumor weight of the test group; and C means the average tumor weight of the control group.
# [2] = test system: M5076 (Mouse Reticulum Cell Sarcoma); test: in vivo Antitumor Test on M5076 (Mouse Reticulum Cell Sarcoma) transplanted in BDF1 mice; conditions: M5076, ip, 504 h, i.p.; for survival rate on day 21 at 50 mg/kg / inhibition in vivo at 50 mg/kg: 50 mg/kg/day
# Protocol: M5076 cells (1×10^6 /animal) were subcutaneously transplanted into the side part of each BDF1 mouse (aged 6 to 7 weeks, female). A compound of the present invention was dissolved in a 5% solution of glucose. From the next day of the transplantation, the solution of the compound was intraperitoneally administered to the animals once a day in accordance with each schedule. On the other hand, a 5% solution of glucose was administered to the control group. The control group had 10 animals, while each test group had 5 animals.
# On the 21st day after the transplantation, tumors were taken out and weighed. The tumor multiplication inhibitory ratio of each test group to the control group was determined in accordance with the following formula: [formula] wherein T means the average tumor weight of the test group; and C means the average tumor weight of the control group.
# [3] = d1,2,3,4 after transplantation, read-out: Survival rate on the judgement day (21th day)
# [4] = d1,2,3,4 after transplantation, tumor weight day 21, read-out: Proliferation inhibitory ratio (%)
IC50 (P388 cells) [nM],Compound,other results
77,"CN(C)CCn1c(=O)c2cccc3c4c5ccc(O)cc5ccc4n(c1=O)c23 [Example 46, 5-[2-(Dimethylamino)ethyl]-11-hydroxy-4H-benzo[c]pyrimido [5,6,1-jk]carbazole-4,6(5H)-dione hydrochloride]",
14,"CN(C)CCn1c(=O)c2cccc3c4c5cccnc5ccc4n(c1=O)c23 [Example 36, 9-[2-(Dimethylamino)ethyl]-8H-pyrido[2,3-c]pyrimido[5,6,1-jk]carbazole-8,10(9H)-dione dihydrochloride]",
11,"O=c1c2cccc3c4c5cccnc5ccc4n(c(=O)n1CCN1CCCC1)c23 [Example 55, 9-[2-(1-Pyrrolidinyl)ethyl]-8H-pyrido[2,3-c]pyrimido[5,6,1-jk]carbazole-8,10(9H)-dione dihydrochloride]",
15,"CN(C)CCn1c(=O)c2ccc(F)c3c4c5cccnc5ccc4n(c1=O)c23 [Example 56, 9-[2-(Dimethylamino)ethyl]-13-fluoro-8H-pyrido[2,3-c]pyrimido[5,6,1-jk]carbazole-8,10(9H)-dione dihydrochloride]",
140,"CN(C)CCn1c(=O)c2cccc3c4c5c(ccc4n(c1=O)c23)C(=O)CCO5 [Example 15, 2,3-Dihydro-9-[2-(dimethylamino)ethyl]-4H,8H-pyrano[3,2-c]pyrimido[5,6,1-jk]carbazole-4,8,10(9H)-trione hydrochloride]",
290,"CN(C)CCN(C)CCn1c(=O)c2cccc3c4c5ccccc5ccc4n(c1=O)c23 [Example 51, 5-[2-[N-[2-(Dimethylamino)ethyl]-N-methylamino]ethyl]-4H-benzo[c]pyrimido[5,6,1-jk]carbazole-4,6(5H)-dione dihydrochloride]",
70,"CN(C)CCn1c(=O)c2cc(Cl)cc3c4c5ccccc5ccc4n(c1=O)c23 [Example 28, 2-Chloro-5-[2-(dimethylamino)ethyl]-4H-benzo[c]pyrimido [5,6,1-jk]carbazole-4,6(5H)-dione hydrochloride]",
6.7,"CN(C)CCn1c(=O)c2cccc3c4c5c(ccc4n(c1=O)c23)C(O)CO5 (stereo not shown) [Example 9, 2,3-Dihydro-8-[2-(dimethylamino)ethyl]-3-hydroxy-7H-furo[3,2-c]pyrimido[5,6,1-jk]carbazole-7,9(8H)-dione]",
290,"COc1ccc2c(ccc3c2c2cccc4c(=O)n(CCN(C)C)c(=O)n3c42)c1 [Example 22, 5-[2-(Dimethylamino)ethyl]-11-methoxy-4H-benzo[c]pyrimido [5,6,1-jk]carbazole-4,6(5H)-dione hydrochloride]",
110,"Cc1cc2c(=O)n(CCN(C)C)c(=O)n3c4ccc5ccccc5c4c(c1)c23 [Example 38, 5-[2-(Dimethylamino)ethyl]-2-methyl-4H-benzo[c]pyrimido [5,6,1-jk]carbazole-4,6(5H)-dione hydrochloride]",

Compound,IC50 (P388 cells) [nM],other results
"CNCCn1c(=O)c2cccc3c4c5c(ccc4n(c1=O)c23)C(=O)CCC5 [Example 10, 12,13-Dihydro-5-[2-(methylamino)ethyl]-4H-benzo[c]pyrimido[5,6,1-jk]carbazole-4,6,10(5H,11H)-trione hydrochloride]",8.5,"responders at 10 mg/kg ([1]; 10 mg/kg/day, read-out: Survival rate on the judgement day (22th day)): 100%; inhibition in vivo at 10 mg/kg ([1]; 10 mg/kg/day, tumor weight day 22, read-out: Proliferation inhibitory ratio (%)): 59.7%"
"O=c1c2cccc3c4c5ccccc5ccc4n(c(=O)n1CCN1CCCC1)c23 [Example 12, 5-[2-(1-Pyrrolidinyl)ethyl]-4H-benzo[c]pyrimido[5,6,1-jk]carbazole-4,6(5H)-dione hydrochloride]",62,"survival rate on day 21 at 50 mg/kg [2, 3]: 100%; inhibition in vivo at 50 mg/kg [2, 4]: 93.9%"
"COc1ccc2ccc3c(c2c1)c1cccc2c(=O)n(CCN(C)C)c(=O)n3c21 [Example 26, 5-[2-(Dimethylamino)ethyl]-12-methoxy-4H-benzo[c]pyrimido [5,6,1-jk]carbazole-4,6(5H)-dione hydrochloride]",230,"survival rate on day 21 at 50 mg/kg [2, 3]: 100%; inhibition in vivo at 50 mg/kg [2, 4]: 97.4%"
"O=C1CCCc2c1ccc1c2c2cccc3c(=O)n(CCN4CCCC4)c(=O)n1c32 [Example 11, 12,13-Dihydro-5-[2-(1-pyrrolidinyl)ethyl]-4H-benzo [c]pyrimido[5,6,1-jk]carbazole-4,6,10(5H,11H)-trione hydrochloride]",42,"responders at 30 mg/kg ([1]; 30 mg/kg/day, read-out: Survival rate on the judgement day (22th day)): 100%; inhibition in vivo at 30 mg/kg ([1]; 30 mg/kg/day, tumor weight day 22, read-out: Proliferation inhibitory ratio (%)): 82.5%"
"CN(CCO)CCn1c(=O)c2cccc3c4c5ccccc5ccc4n(c1=O)c23 [Example 52, 5-[2-[N-(2-(Hydroxyethyl)-N-methylamino]ethyl]-4H-benzo[c]pyrimido[5,6,1-jk]carbazole-4,6(5H)-dione hydrochloride]",150,"survival rate on day 21 at 50 mg/kg [2, 3]: 100%; inhibition in vivo at 50 mg/kg [2, 4]: 70.6%"
"CN(C)CCn1c(=O)c2cccc3c4c(n(c1=O)c32)Cc1ccccc1-4 [Example 20, 2-[2-(Dimethylamino)ethyl]-1H,11H-indeno[1',2':4,5]pyrrolo[3,2,1-ij]quinazoline-1,3(2H)-dione hydrochloride]",570,"survival rate on day 21 at 12.5 mg/kg ([2]; 12.5 mg/kg/day, d1,2,3,4 after transplantation, read-out: Survival rate on the judgement day (21th day)): 100%; inhibition in vivo at 12.5 mg/kg ([2]; 12.5 mg/kg/day, d1,2,3,4 after transplantation, tumor weight day 21, read-out: Proliferation inhibitory ratio (%)): 70.8%"
"CN(C)CCn1c(=O)c2cccc3c4c5ccc(C#N)cc5ccc4n(c1=O)c23 [Example 35, 11-Cyano-5-[2-(dimethylamino)ethyl]-4H-benzo[c]pyrimido [5,6,1-jk]carbazole-4,6(5H)-dione hydrochloride]",63,"survival rate on day 21 at 25 mg/kg ([2]; 25 mg/kg/day, d9 after transplantation, read-out: Survival rate on the judgement day (21th day)): 100%; inhibition in vivo at 25 mg/kg ([2]; 25 mg/kg/day, d9 after transplantation, tumor weight day 21, read-out: Proliferation inhibitory ratio (%)): 78.7%"
"CN(C)CCn1c(=O)c2cccc3c4c5c(ccc4n(c1=O)c23)C(=O)CC5 [Example 7, 11,12-Dihydro-5-[2-(dimethylamino)ethyl]-4H,10H-ccylopenta[c]pyrimido[5,6,1-jk]carbazole-4,6,10(5H)-trione hydrochloride]",31,"responders at 15 mg/kg ([1]; 15 mg/kg/day, read-out: Survival rate on the judgement day (22th day)): 100%; inhibition in vivo at 15 mg/kg ([1]; 15 mg/kg/day, tumor weight day 22, read-out: Proliferation inhibitory ratio (%)): 73.2%"
"CN(C)CCn1c(=O)c2cccc3c4c5cnccc5ccc4n(c1=O)c23 [Example 33, 9-[2-(Dimethylamino)ethyl]-8H-pyrido[4,3-c]pyrimido[5,6,1-jk]carbazole-8,10(9H)-dione dihydrochloride]",56,"survival rate on day 21 at 50 mg/kg ([2]; d9 after transplantation, read-out: Survival rate on the judgement day (21th day)): 100%; inhibition in vivo at 50 mg/kg ([2]; d9 after transplantation, tumor weight day 21, read-out: Proliferation inhibitory ratio (%)): 74.9%"
